The structures appear in SMILES notation. “And” between values parts separate entries of the source, which are not always exact repeats. Equal entries are not always repeated.

Test [1] has as its target T1, FKBP12 (Homo sapiens, UniProt P62942). Briefly: AlphaLISA inhibition of binding of biotinylated FK506 to FLAG tagged FKBP12. Particulars: read-out: Binding affinity to FKBP12 (by displacement of FK506). Also on record: made in house. The source says:
The binding of compounds of the invention to FKBP12 can be determined using the following protocol.
This protocol utilizes Perkin Elmers AlphaLISA technology platform to detect FKBP binders by measuring the inhibition of binding of biotinylated FK506 to FLAG tagged FKBP12.
10×TBST Buffer (Boston BioProducts IBB-181), Biotinylated FK506 (in-house), FLAG tagged FKBP (in-house); anti-FLAG Donor beads (PerkinElmer AS103) and Streptavidin Acceptor beads (PerkinElmer AL125); Compounds in DMSO (in-house), FK506.
Add 20 uL of 12.5 nM FKBP-FLAG working stock to each well of the 96-well plate. Add 1 uL of test compound (100% DMSO) to each well of the plate using the Janus MTD head and P20 tips (except control wells). Add 1 uL of DMSO to negative control wells and 1 uL of 50 uM FK506 solution to positive control wells. In the dark, add 20 uL of combined Donor/Acceptor beads to each well. Incubate in the dark for 30 minutes at room temperature. In the dark, add 10 uL of 5 nM biotinylated FK506 working stock to each well. Incubate in the dark for 60 minutes at room temperature. Protect plate from light until reading on Biotek Synergy2 Plate Reader; Alphalisa 96-well protocol (680 excitation/615 emission).
On the technique in general: Alpha assays give light when donor and acceptor beads are brought close together.

Test [2] has as its target T1, FKBP12. Nature of the test: SPR binding of compound (analyte) to immobilized FKBP12. The following applies: for Kd: read-out: SPR affinity to FKBP12: KD, 25° C., Table 7. (In general: SPR reads the build-up and loss of mass on a sensor chip optically.)
Protocol: This protocol utilizes Surface Plasmon Resonance (SPR) as a method to determine kinetics (KD, Ka, Kd) for the binding of compound (analyte) to immobilized FKBP12 (ligand).
Compound in 100% DMSO (in-house), 10×HBS-P+ buffer (GE Healthcare BR-1006-71), Assay buffer (1×HBS-P+ buffer, 1% DMSO), 12×HIS tagged FKBP12 (in-house).
Experiments are performed at 25° C. Stock solution of 12×HIS tagged FKBP12 is diluted to 100 nM in assay buffer (1% DMSO final). Approximately 500-600 RU of FKBP12 is immobilized on one of two flow cells of an activated NTA chip. The second flow cell is not activated as a reference for non-specific interaction of the analyte to the sensor chip. Various concentrations of compound (1 nM-1 μM range), serially diluted into the same assay buffer (1% DMSO final), are injected onto the FKBP12 surface and reference surface at a flow rate of 10 μl/min. The surface is regenerated between analyte injections with 350 mM EDTA.
Experiments are performed at 25° C. Stock solution of 12×HIS tagged FKBP12 is diluted to 100 nM in assay buffer (1% DMSO final). Approximately 500-600 RU of FKBP12 is immobilized on one of two flow cells of an activated NTA chip. The second flow cell is not activated as a reference for non-specific interaction of the analyte to the sensor chip.
For the next test, the system named is HeLa-FKBP12 cells. Nature of the test: Biosensor cell permeability assay (FKBP destabilizing mutant), HeLa-FKBP12 cells. In kind it is cell-based. The following applies: 72 hrs. As for the experimental part:
Cell permeability of compounds can be determined using the following protocol.
This protocol utilizes a modified FKBP or cyclophilin destabilizing mutant to determine the bioactivity of FKBP binding compounds or cyclophilin binding compounds in whole cell assay.
DMEM, DMEM without Phenol Red, 10% FBS, 1× Sodium Pyruvate, 1× Glutamax. Add 125 μl of media with compound per well.
Plate HeLa-FKBP12 cells (for FKBP binding compounds) or HeLa-CyclophilinA cells (for cyclophilin binding compounds) and seed overnight at 5 k/well (approximately ˜18 hrs.). Using a multi-channel pipet, take out the old media and add ˜125 ul of new media with compounds. Compounds are diluted using DMEM without Phenol Red, 10% FBS, 1× Sodium Pyruvate, 1× Glutamax. Add 125 μL of media with compound per well. Cells are treated with compounds at concentration: 30, 10, 3.33, 1.11, 0.37, 0.12, 0.04 and 0.013 uM. Time points are taken at 72 hrs and plate read using plate reader with excitation/emission: 575/620.
Cell binding/permeability is calculated in fold-change (Total RFU of treated samples/total RFU of DMSO treated samples or total RFU above background (Total RFU minus total RFU of DMSO treated samples).

Test [3] addresses T2, CEP250 (Homo sapiens, UniProt Q9BV73).
T2 construct: CEP25011.4 (residues 2134-2231) (in-house); made in house
Nature of the test: ITC binding of FKBP12-compound binary complexes to CEP250. Particulars: FKBP12 10 μM + ligand 20 μM in cell, 298 K; for Kd: calculated from Ka = 1/Kd.

For test [4], the target named is T2, CEP250. Nature of the test: SPR binding of CEP250 (analyte) to immobilized FKBP12-F2 binary complex. The following applies: 1 μM F2. On the procedure: This protocol utilizes Surface Plasmon Resonance (SPR) as a method to determine kinetics (KD, Ka, Kd) for the binding of CEP250 (analyte) to immobilized FKBP12-F2 binary complex (ligand).
Experiments are performed at 25° C. […] Approximately 200-400 RU of FKBP12 is immobilized on one of two flow cells of an activated NTA chip. The second flow cell is not activated as a reference for non-specific interaction of the analyte to the sensor chip. […] The surface is regenerated between analyte injections with 350 mM EDTA.
The BiaEvaluation software program is used for data fitting. All data is reference subtracted against both the reference flow cell and a buffer injection. For kinetic analyses, data is locally fit to a 1:1 interaction model.

For test [5], the target named is T3, CEP250 (Homo sapiens, UniProt P62942+Q9BV73).
T3 construct: CEP25011.4 (residues 2134-2231) (in-house); made in house
T3 sequence (Q9BV73 2134-2231): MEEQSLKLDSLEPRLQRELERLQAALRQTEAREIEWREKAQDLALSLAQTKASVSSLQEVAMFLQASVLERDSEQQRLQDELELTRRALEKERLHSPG
T3 sequence (P62942 whole entry, the tested form may be a part): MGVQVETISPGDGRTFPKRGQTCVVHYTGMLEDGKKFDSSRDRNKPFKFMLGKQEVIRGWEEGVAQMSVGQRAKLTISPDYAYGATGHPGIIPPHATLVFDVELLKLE
Briefly: Crystal structure analysis of FKBP12-compound-CEP250 ternary complexes. On the procedure:
This protocol describes the crystallization and structure determination method for structures of FKBP12-Compound 2-CEP250 and FKBP12-F11-CEP250 ternary complexes.
A 3:1 molar excess of FKBP12-F2 or FKBP12-F11 binary complex is added to CEP25011.4 and incubated at 4° C. overnight to complete ternary complex formation. Pure ternary complex is isolated by gel filtration purification on a Superdex 200 column in 12.5 mM HEPES pH 7.4, 75 mM NaCl. Purified complex (at 10-20 mg/ml) is subjected to crystallization at 22° C. using sitting drop vapor diffusion. FKBP12-F2-CEP250 crystals grow in a well solution containing 0.2 M sodium malonate, 0.1 M HEPES 7.0, 21% PEG 3350. FKBP12-F11-CEP250 crystals grow in a well solution containing 0.1 M Tris pH 8.5, 0.2 M trimethylamine N-oxide, 22-24% PEG2000 MME. For data collection crystals are transferred to a solution containing mother liquor supplemented with 20-25% glycerol, and then frozen in liquid nitrogen. Diffraction datasets are collected at the Advanced Photon Source (APS) and processed with the HKL program. Molecular replacement solutions are obtained using the program PHASER in the CCP4 suite, using the published structure of FKBP12 (PDB-ID 1FKD) as a search model. Subsequent model building and refinement are performed according to standard protocols with the software packages CCP4 and COOT.

[6] abbreviates: FKBP12-compound-CEP250 crystal structure.

T1 sequence (P62942 whole entry, species assumed): as the sequence (P62942 whole entry, the tested form may be a part) above

Consider `CC1=CCC(O)CC(C(C)=CC(C)=CC2C=CC(O)C(O)C2)OC(=O)C2CCCCN2C(=O)CC2(O)OC(C(C)CC=CCC(O)C=C1)C(C)CC2C` (stereo not shown) [Compound F6], for which the IC50 on FKBP12 [1] was 0.06 µM; in the test on HeLa-FKBP12 cells, under 1 µM. Also, the dissociation constant (Kd) (as a rule, the equilibrium constant for the complex coming apart) on FKBP12 [2] came out at 0.141 µM.

For the molecule `CC[C@H](Cc1ccccc1)[C@@H]1/C=C/C/C=C/C[C@@H](C)[C@H](O)[C@@H](C)[C@@H]2CC[C@@H](C)C(=O)C(O)(O2)C(=O)N2CCCC[C@H]2C(=O)O1` [Compound F2, (2S)-1-((4R,7S)-7-((2R,3S,4R,6E,9E,11R,12R)-12-benzyl-3,11-dihydroxy-4-methyltetradeca-6,9-dien-2-yl)-2-hydroxy-4-methyl-3-oxooxepane-2-carbonyl)piperidine-2-carboxylic acid C-11 lactone], the IC50 at FKBP12 [1] is 0.0015 µM. On CEP250 [3] (CEP25011.4 68 μM in syringe), the ΔG was −40.75 kJ*mol −mol−1, the ΔH was −49.37 kJ*mol −mol−1, the “−T*ΔS” value stood at 8.62 kJ*mol −mol−1 and the Kd was 0.07 µM. At CEP250 [3] (CEP25029.4 118 μM in syringe), the ΔG is −38.41 kJ*mol −mol−1, the ΔH is −52.21 kJ*mol −mol−1, the “−T*ΔS” value worked out at 13.80 kJ*mol −mol−1 and the Kd was 0.19 µM. This molecule also gave a Ka at FKBP12 [2] (Example 10, 25° C., 1:1 interaction model) of 45000 M⁻¹ s⁻¹. The Kd on FKBP12 [2] stood at 0.0126 µM. The molecule further yielded an IC50 with HeLa-FKBP12 cells of under 1 µM. Also, on CEP250 [4] (FKBP12/F2 complex to CEP25011.4 (residues 2134-2231)), the Ka is 571000 M⁻¹ s⁻¹. The molecule also had a Ka on CEP250 [4] (FKBP12/F2 complex to CEP25029.2 (residues 1982-2231)) of 311000 M⁻¹ s⁻¹. Further, on CEP250 [5] (setting [6]), the “buried surface area of CEP250 contributed by FKBP12” value came out at 663 Å^2; the “buried surface area of CEP250 contributed by the compound” value is 232 Å^2 and 241 Å^2; the “total buried surface area of CEP250” value was determined as 865 Å^2; the “total buried surface area of the ternary complex” value was found to be 1759 Å^2. Further, on CEP250 [5] (ternary complex), the “binding interactions between compound and CEP250 that are van der Waals or pi-pi interactions” value stood at 100%.

As for `COC1C(O)CCC(CC(C)C2CCCC=CCC(C)=CCC3OC(O)(C(=O)C(=O)N4CCCCC4C(=O)O2)C(C)CC3C)C1O` (stereo not shown) [Compound F9], the IC50 at FKBP12 [1] is 0.0003 µM; in the test on HeLa-FKBP12 cells it was under 1 µM. The Kd on FKBP12 [2] worked out at 0.00023 µM.

Regarding `CCC1C=C(C)C(O)CCC(C)C=CC(O)C(C)C2CCC(C)C(O)(O2)C(=O)C(=O)N2CCCCC2C(=O)OC2C=CC(=CC2O)C=C(C)C1` (stereo not shown) [Compound F10], the IC50 is 0.0211 µM at FKBP12 [1] and over 1 µM in the test on HeLa-FKBP12 cells. Moreover, the Kd on FKBP12 [2] was determined as 0.0172 µM.

For `CC1=CC2=CC(O)C(C=C2)OC(=O)C2CCCCN2C(=O)C(=O)C2(O)OC(CCC2C)C(C)C(O)C=CC(C)CCC(O)C(C)=CC(C)C1` (stereo not shown) [Compound F12], the IC50 on FKBP12 [1] is 0.0363 µM; in the test with HeLa-FKBP12 cells it was over 1 µM. Besides, the Kd at FKBP12 [2] was 0.0212 µM.
